pKd: −log10 of the molar value.
Tests used:
[1] = target: HIV-1 frameshift regulatory RNA sequence (Seq I, SEQ ID NO:1); test: SPR binding of immobilized dimers to RNA; conditions: read-out: dissociation constant (Kd), affinity to the HIV-1 frameshift regulatory RNA sequence
Experimental: (§1) Graphical analysis of Surface Plasmon Resonance (SPR) data was carried out using DeltaGraph (Rockware Inc.). SPR analysis was conducted on a Reichert SR7000 refractometer using Reichert gold sensor slides that consist of a mixed self-assembled monolayer of thiol-PEG-alcohols and thio-PEG-carboxylic acids (˜9:1; PEG=polyethylene glycol). Amine functionalized small molecules were attached by […]/EDC coupling to the carboxy termini of the surface. After activating the monolayer, molecules were covalently attached through the addition of a 1 mg/mL solution of molecule in a sodium acetate buffer (20 mM, pH=5.5). Unreacted activated esters were quenched through the addition of ethanolamine. […]
To confirm this hypothesis, dissociation constants (Kd) were measured for dimers 1-1 and 1-3 by SPR (FIG. 7A) (Whitney et al., “Templated Ligand Assembly by Using G-quadruplex DNA and Dynamic Covalent Chemistry,” Angew. Chem. Int. Ed. 43:1143-1146 (2004); Lacy et al., “Influence of a Terminal Formamido Group on the Sequence Recognition of DNA by Polyamides,” J. Am. Chem. Soc. 124:2153-2163 (2002); Carrasco et al., “DNA Sequence Recognition by the Indolocarbazole Antitumor Antibiotic AT2433-B1 and Its Diastereoisomer,” Nucleic Acids Res. 30:1774-1781 (2002), each of which is hereby incorporated by reference in its entirety).

[2] = target: alternate RNA stem-loop (Seq III, SEQ ID NO:3); test: SPR binding specificity, Seq III
Experimental: as §1, with “ethanolamine. A flow rate of 10 μL/min and injection volumes of 150 μL was used throughout the experiment. RNA solutions were made to be 15.3 nM, 62.5 nM, 250 nM, 500 nM, 1 μM, 2 μM, 10 μM, and 50 μM.” for “ethanolamine.”
Specificity was assessed by measuring the affinity of 1-1 to three other oligonucleotides: the DNA sequence homologous to I (Seq II, FIG. 7C, SEQ ID NO:2), the alternate RNA stem-loop (Seq III, FIG. 7D, SEQ ID NO:3) (Karan et al., “RNA-Selective Coordination Complexes Identified via Dynamic Combinatorial Chemistry,” J. Am. Chem. Soc. 123:7455-7456 (2001), which is hereby incorporated by reference in its entirety), and an RNA stem loop with an altered loop sequence (Seq IV, FIG. 7E, SEQ ID NO:4).

[3] = target: (CUG)109 RNA (SEQ ID NO:8)-MBNL1 protein interaction; test: Enzyme Fragmentation Complementation (EFC) assay of (CUG)109-MBNL1 binding inhibition; assay type: biochemical
Experimental: Small molecule-mediated inhibition of (CUG)109-MBNL1 binding was determined using an Enzyme Fragmentation Complementation (EFC) assay (Eglen et al., “β-Galactosidase Enzyme Fragment Complementation as A Novel Technology for High Throughput Screening,” Comb. Chem. High Throughput Screening 6:381-387 (2003), which is hereby incorporated by reference in its entirety). Briefly, this was performed by first immobilizing (CUG)109 RNA (SEQ ID NO:8) to a 96 well plate. Next, the immobilized RNA was incubated with recombinant MBNL1 fused to the PL enzyme donor peptide (PL-MBNL1, where “PL” is the commercial “ProLabel” enzyme donor peptide) (DiscoveRx PathHunter ProLabel Detection kit) in the presence of varying concentrations of small molecule inhibitor. The Enzyme Acceptor (EA-β-galactosidase) complement was then added, and the activity of the resulting plate—(CUG)109 bound (PL-MBNL1)-(EA-β-galactosidase) activity was monitored via a chemiluminsecent substrate. Only the EA-β-Gal bound to the PL-MBNL1 is capable of performing the luminescent reaction and, as such, any luminescence correlates to the amount of MBNL1 bound to the (CUG)109 immobilized on the plate. Wells lacking (CUG)109 RNA served as a background measure of non-specific luminescence and were subtracted from each experiment to yield a 0% bound value. Wells containing no small molecule inhibitor added served as 100% bound. […]

[4] = tested on: HIV-1 frameshift-inducing RNA stem-loop; test: Resin-bead fluorescence microscopy screen (RBDCC) with Cy3-labeled RNA; assay type: binding; conditions: x-y: x resin-bound, y solution phase; 500 nM RNA stem-loop, 72 hours, 50 msec exposure
Experimental: First, as a control, 450 beads (150 of each size, 3 beads/compound, 387 nmol total) were placed in a 1.5 ml solid phase reaction vessel. To this was added a 1 ml solution of 1 μM RNA-Cy3 in phosphate buffer. This solution was agitated for 3 hours on a LabQuake™ rotator. After such time, the solution was drained by vacuum and washed three times with buffer (1 ml, 1 min. each). After washing, the resin was suspended in 2 ml buffer and placed in a Petri dish.
Next, RBDCC experiments were run in quadruplet. […] After such time, the solution was removed from 1 of the 4 experiments and the resin was washed with buffer, plated with 2 ml buffer, and analyzed by fluorescence microscopy as described above. […]
1, 2, and 3 were individually synthesized on TentaGel (0.86 nmol/bead), and equilibrated as described above in separate vessels containing only 1, 2, or 3 solution phase monomers and 500 nM RNA stem-loop, half the concentration used in the initial screen. After 72 hours the resin was washed in a manner identical to the conditions of screen number 4 (i.e., the highest stringency screen) and analyzed by fluorescence microscopy (50 msec. exposure) (see FIGS. 6A-I).

CCc1nc2ccccc2cc1C(=O)N[C@@H](CSSC[C@H](NC(=O)c1cc2ccccc2nc1CC)C(=O)N1CCC[C@H]1C(=O)N[C@@H](Cc1ccccc1)C(=O)NCCCN)C(=O)N1CCC[C@H]1C(=O)N[C@@H](Cc1ccccc1)C(=O)NCCCN [dimer 1-1]
pKd [1]: 5.72 | affinity for sequence III [2]: no measurable affinity | Ki, inhibition of the (CUG)n MBNL1 interaction [3]: do not show any inhibitory effect | affinity for the RNA stem-loop by bead fluorescence intensity [4]: highest affinity

Source: US9212205B2, “Nucleic acid binding compounds and methods of use” (University of Rochester, priority 2007, dated 2015)
